Experimental data from PMC8781238 (European journal of medicinal chemistry, 2020).
“Also recorded” adds a separate entry of the source.

Key:
recombinant human SphK2 = target: T1, recombinant human SphK2 (Homo sapiens, UniProt Q9NRA0); assay: ADP-Glo kinase assay, SphK2; settings: comparison of SphK1 and SphK2 activity at 125 µM compound (Fig. 5)
T1 sequence (Q9NRA0 1-654): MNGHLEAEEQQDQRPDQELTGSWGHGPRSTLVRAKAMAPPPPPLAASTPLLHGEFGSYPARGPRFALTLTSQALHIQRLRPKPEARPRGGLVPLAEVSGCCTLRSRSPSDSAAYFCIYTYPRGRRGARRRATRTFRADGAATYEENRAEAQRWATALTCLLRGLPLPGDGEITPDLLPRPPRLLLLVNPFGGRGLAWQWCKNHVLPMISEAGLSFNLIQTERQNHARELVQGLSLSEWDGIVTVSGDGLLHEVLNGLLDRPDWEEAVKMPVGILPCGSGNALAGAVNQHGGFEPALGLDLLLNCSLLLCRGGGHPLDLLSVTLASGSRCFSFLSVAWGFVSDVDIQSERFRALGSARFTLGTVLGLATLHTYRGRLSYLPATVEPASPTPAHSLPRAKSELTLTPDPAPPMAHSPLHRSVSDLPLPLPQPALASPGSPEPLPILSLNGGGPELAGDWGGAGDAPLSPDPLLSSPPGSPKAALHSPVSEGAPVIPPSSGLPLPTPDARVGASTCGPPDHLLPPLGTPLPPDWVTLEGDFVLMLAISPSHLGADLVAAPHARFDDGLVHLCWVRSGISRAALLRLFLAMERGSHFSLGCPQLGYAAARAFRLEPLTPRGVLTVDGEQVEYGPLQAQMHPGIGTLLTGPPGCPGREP

[1] = system: U-251 MG human glioblastoma cells; assay: In vitro cell viability assay; type: cell-based; settings: 125 µM, 24 hours incubation; for Antitumor activity on U-251 MG cell viability (in words): compared with compound 7 (ABC294640)
SphK1 = settings: read-out: SphK1 IC50; cited from earlier work
SphK2 = settings: cited from earlier work

Cl.Cn1cc(-c2cn(Cc3ccc(-c4noc(C5(C(=N)N)CC5)n4)cc3)nn2)cn1 [Compound 29b]
Selectivity/specificity for SphK2 over SphK1 (in words) (recombinant human SphK2): highly selective

Cl.Cn1cc(-c2cn(Cc3ccc(-c4noc(C[C@@H]5CCCN5C(=N)N)n4)cc3)nn2)cn1 [Compound 21g, (S)-2-((3-(4-((4-(1-Methyl-1H-pyrazol-4-yl)-1H-1,2,3-triazol-1-yl)methyl)phenyl)-1,2,4-oxadiazol-5-yl)methyl)pyrrolidine-1-carboximidamide hydrochloride]
Selectivity/specificity for SphK2 over SphK1 (in words) (recombinant human SphK2): high selectivity; also recorded: highest specificity

Cl.N=C(N)N1CCC[C@H]1Cc1nc(-c2ccc(Cn3cc(C4CC4)nn3)cc2)no1 [Compound 21f, (S)-2-((3-(4-((4-Cyclopropyl-1H-1,2,3-triazol-1-yl)methyl)phenyl)-1,2,4-oxadiazol-5-yl)methyl)pyrrolidine-1-carboximidamide hydrochloride]
Selectivity/specificity for SphK2 over SphK1 (in words) (recombinant human SphK2): lowest specificity; also recorded: no selective

Cl.N=C(N)C1(c2nc(-c3ccc(Cn4cc(-c5ccccc5)nn4)cc3)no2)CC1 [Compound 29a, 1-(3-(4-((4-Phenyl-1H-1,2,3-triazol-1-yl)methyl)phenyl)-1,2,4-oxadiazol-5-yl)cyclopropanecarboximidamide hydrochloride]
Selectivity/specificity for SphK2 over SphK1 (in words) (recombinant human SphK2): highly selective

Cl.N=C(N)N1CCC[C@H]1c1nc(-c2ccc(Cn3cc(-c4ccccn4)nn3)cc2)no1 [Compound 25c, (S)-2-(3-(4-((4-(Pyridin-2-yl)-1H-1,2,3-triazol-1-yl)methyl)phenyl)-1,2,4-oxadiazol-5-yl)pyrrolidine-1-carboximidamide hydrochloride]
Selectivity/specificity for SphK2 over SphK1 (in words) (recombinant human SphK2): lowest specificity

Cl.N=C(N)N1CCC[C@H]1Cc1nc(-c2ccc(Cn3cc(-c4ccccn4)nn3)cc2)no1 [Compound 21c, (S)-2-((3-(4-((4-(Pyridin-2-yl)-1H-1,2,3-triazol-1-yl)methyl)phenyl)-1,2,4-oxadiazol-5-yl)methyl)pyrrolidine-1-carboximidamide hydrochloride]
Selectivity/specificity for SphK2 over SphK1 (in words) (recombinant human SphK2): high selectivity; also recorded: highest specificity

COc1ccc(-c2cn(Cc3ccc(-c4noc([C@@H]5CCCN5C(=N)N)n4)cc3)nn2)cc1.Cl [Compound 25d]
Antitumor activity on U-251 MG cell viability (in words) [1]: comparable reduction of viability

O=C(NCc1ccncc1)C12CC3CC(C1)CC(c1ccc(Cl)cc1)(C3)C2 [Compound 7]
Reduction of cell viability of U-251 MG cells [1]: approximately 50% | IC50 (SphK1): ≥ 100 µM | IC50 (SphK2; read-out: SphK2 IC50): ~60 µM

CCCCc1cn(Cc2ccc(-c3noc(C[C@@H]4CCCN4C(=N)N)n3)cc2)nn1.Cl [Compound 21d, (S)-2-((3-(4-((4-Butyl-1H-1,2,3-triazol-1-yl)methyl)phenyl)-1,2,4-oxadiazol-5-yl)methyl)pyrrolidine-1-carboximidamide hydrochloride]
Selectivity/specificity for SphK2 over SphK1 (in words) (recombinant human SphK2): lowest specificity; also recorded: no selective

COc1ccc(-c2cn(Cc3ccc(-c4noc(C[C@@H]5CCCN5C(=N)N)n4)cc3)nn2)cc1.Cl [Compound 21e, (S)-2-((3-(4-((4-(4-Methoxyphenyl)-1H-1,2,3-triazol-1-yl)methyl)phenyl)-1,2,4-oxadiazol-5-yl)methyl)pyrrolidine-1-carboximidamide hydrochloride]
Antitumor activity on U-251 MG cell viability (in words) [1]: comparable reduction of viability | Selectivity/specificity for SphK2 over SphK1 (in words) (recombinant human SphK2): high selectivity; also recorded: highest specificity

Cl.N=C(N)N1CCC[C@H]1c1nc(-c2ccc(Cn3cc(C4CC4)nn3)cc2)no1 [Compound 25h]
Selectivity/specificity for SphK2 over SphK1 (in words) (recombinant human SphK2): high selective

CCCCc1cn(Cc2ccc(-c3noc([C@@H]4CCCN4C(=N)N)n3)cc2)nn1.Cl [Compound 25f]
Selectivity/specificity for SphK2 over SphK1 (in words) (recombinant human SphK2): high selective

Cl.N=C(N)N1CCC[C@H]1Cc1nc(-c2ccc(Cn3cc(-c4ccc(C(F)(F)F)cc4)nn3)cc2)no1 [Compound 21b, (S)-2-((3-(4-((4-(4-(Trifluoromethyl)phenyl)-1H-1,2,3-triazol-1-yl)methyl)phenyl)-1,2,4-oxadiazol-5-yl)methyl)-pyrrolidine-1-carboximidamide hydrochloride]
Antitumor activity on U-251 MG cell viability (in words) [1]: highest anti-tumor activity; also recorded: strongest antitumor activity | Selectivity/specificity for SphK2 over SphK1 (in words) (recombinant human SphK2): lowest specificity; also recorded: no selective

Cl.N=C(N)N1CCC[C@H]1c1nc(-c2ccc(Cn3cc(-c4ccc(C(F)(F)F)cc4)nn3)cc2)no1 [Compound 25b]
Antitumor activity on U-251 MG cell viability (in words) [1]: highest anti-tumor activity; also recorded: tremendously decrease the viability; also recorded: strongest antitumor activity; also recorded: higher antitumor activity

N=C(N)N1CCC[C@H]1Cc1nc(-c2ccc(Nc3nc(-c4cccc(C(F)(F)F)c4)cs3)cc2)no1 [Compound 13]
Ki (SphK2; read-out: SphK2 Ki): 0.09 µM

Cl.N=C(N)N1CCC[C@H]1Cc1nc(-c2ccc(Cn3cc(-c4ccccc4)nn3)cc2)no1 [Compound 21a, (S)-2-((3-(4-((4-Phenyl-1H-1,2,3-triazol-1-yl)methyl)phenyl)-1,2,4-oxadiazol-5yl)methyl)pyrrolidine-1-carboximidamide hydrochloride]
Antitumor activity on U-251 MG cell viability (in words) [1]: highest anti-tumor activity; also recorded: strongest antitumor activity
